Results from PubChem BioAssay AID1421 (Emory University Molecular Libraries Screening Center, 2008).
The source made the active and inactive calls. How the calls were made is not given here.

Target: Prostaglandin E2 receptor EP2 subtype (Homo sapiens) (UniProt P43116)
Experiment: compounds shifting PGE2 potency at EP2 – cell-based, human EP2, PGE2 EC50 shift, dose response (AID 1421)
Settings: EP2-expressing cells, PGE2 EC50 shift by compound

Sequence of Prostaglandin E2 receptor EP2 subtype (Homo sapiens) (P43116 whole entry, looked up): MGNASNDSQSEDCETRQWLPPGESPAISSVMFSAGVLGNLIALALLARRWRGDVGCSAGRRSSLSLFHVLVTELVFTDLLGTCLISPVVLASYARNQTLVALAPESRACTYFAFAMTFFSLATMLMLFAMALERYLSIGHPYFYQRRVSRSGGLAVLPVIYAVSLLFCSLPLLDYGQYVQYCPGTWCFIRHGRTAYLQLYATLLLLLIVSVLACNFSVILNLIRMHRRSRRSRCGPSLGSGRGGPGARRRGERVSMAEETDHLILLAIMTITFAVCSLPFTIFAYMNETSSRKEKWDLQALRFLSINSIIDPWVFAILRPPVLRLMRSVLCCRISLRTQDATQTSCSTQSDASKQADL

For CCOC(=O)c1c(NC(=O)CN2CCCCC2)sc(C)c1C, the outcome was “active”.
In the case of OC(Cc1ccccc1)(Cc1ccccc1)c1ccccc1, the outcome is reported as “active”.
CCn1c2c(c3cc(OCC(C)C)ccc31)CCCC2=O was tested, and the outcome was “active”.
CC1CCCC(C)N1C(=O)c1ccccc1Nc1ccc(SC(F)F)cc1 (stereo not drawn) was tested, and the outcome was “active”.
In the case of O=C(NCc1ccc(F)cc1)c1ccccc1OCc1ccccc1, the outcome is reported as “active”.
With CCSc1cc(N2CCOCC2)nc(-c2ccccc2)n1 the outcome was “active”.
For C(=N\N(Cc1ccccc1)c1ccccc1)/c1cccnc1, the outcome was “active”.

Same assay, conditions: EP2-expressing cells, PGE2 EC50 shift by compound; measured here: PGE2 EC50 at 6.7 uM compound

COC(=O)c1ccc(-n2nc(C(F)(F)F)c3c2-c2ccoc2CC3)cc1 and O=C(O)c1ccc(-c2ccccc2C(F)(F)F)o1 are within 1.5-fold of each other in PGE2 EC50 with compound: 0.79 nM for the first, 0.92 nM for the second.

First: CCc1nc2c(cnn2-c2ccc(Cl)cc2)c(=O)n1-c1ccc(OC)cc1
Second: COc1ccc2c(C)cc(SCC(=O)Nc3ncc(Cl)cc3Cl)nc2c1
The PGE2 EC50 with compound of the first is 1.8-fold lower: 0.85 nM for the first, 1.52 nM for the second.

Going from CCC(C)(C)c1ccc(OCC(=O)N(C)C)c(C(C)(C)CC)c1 to CCOc1ccc(OCC)c(NC(=O)CN2CCN(c3ccc(C)cc3C)CC2)c1, the PGE2 EC50 with compound falls from 5.61 nM to 0.88 nM (6.4-fold).

First: N#CN=C1SCCS1
Second: N#CC1=C(N)SC(N)=C(C#N)C1c1ccoc1
The PGE2 EC50 with compound of the first is 2.8-fold lower: 0.92 nM for the first, 2.61 nM for the second.

CCC(C)(C(=O)NC1CCCCC1)N(C(=O)C1CCC(=O)N1)c1ccccc1 (stereo not drawn) and O=C(NCCC1=CCCCC1)c1cccc2c1C(=O)N(C1CCCCC1)C2 are within 1.5-fold of each other in PGE2 EC50 with compound: 1.17 nM for the first, 1.18 nM for the second.

CCOC(=O)c1c(NC(=O)CN2CCCCC2)sc(C)c1C and CCOC(=O)c1c(NC(=O)c2cccnc2)sc(C)c1C are within 1.5-fold of each other in PGE2 EC50 with compound: 0.89 nM for the first, 1.25 nM for the second.

OC(Cc1ccccc1)(Cc1ccccc1)c1ccccc1 and C(=N\N(Cc1ccccc1)c1ccccc1)/c1cccnc1 are within 1.5-fold of each other in PGE2 EC50 with compound: 1.02 nM for the first, 1.34 nM for the second.

CCn1c2c(c3cc(OCC(C)C)ccc31)CCCC2=O and Cc1cccc(-c2nc(=S)c3c(n2Cc2ccco2)CCCC3)c1 are within 1.5-fold of each other in PGE2 EC50 with compound: 1.09 nM for the first, 0.88 nM for the second.

First: CCC(c1nnnn1C1CCCC1)N(Cc1cccs1)Cc1cc2cc(C)ccc2[nH]c1=O (stereo not drawn)
Second: COc1ccc(S(=O)(=O)N(Cc2cccs2)C2CCCC2)cc1
The PGE2 EC50 with compound of the first is 3.8-fold lower: 0.33 nM for the first, 1.26 nM for the second.

First: CC1CCCC(C)N1C(=O)c1ccccc1Nc1ccc(SC(F)F)cc1 (stereo not drawn)
Second: O=C(c1cn(Cc2ccccc2)c2ccccc12)C1CC1
The PGE2 EC50 with compound of the first is 2.5-fold lower: 1.05 nM for the first, 2.61 nM for the second.

Going from CCOC(=O)c1ccccc1NC(=O)C1COc2ccccc2O1 (stereo not drawn) to O=C(NCc1ccc(F)cc1)c1ccccc1OCc1ccccc1, the PGE2 EC50 with compound rises from 0.66 nM to 1.03 nM (1.6-fold).

CCCC/C(=N\NC(=O)c1ccc(Br)o1)c1ccccc1 and CC1CCCCN1C(=O)/C(=C\c1ccccc1)c1ccccc1 (stereo not drawn) are within 1.5-fold of each other in PGE2 EC50 with compound: 2.49 nM for the first, 2.61 nM for the second.

Cc1cc2ccc(C)c(C)c2nc1SCC#N and CCSc1cc(N2CCOCC2)nc(-c2ccccc2)n1 are within 1.5-fold of each other in PGE2 EC50 with compound: 1.18 nM for the first, 1.02 nM for the second.

Going from CC1CCc2cc(F)cc3c(O)c(C(=O)NCc4ccco4)c(=O)n1c23 (stereo not drawn) to Nc1c(C(=O)NCc2ccco2)c2nc3ccccc3nc2n1CCc1ccccc1, the PGE2 EC50 with compound rises from 0.56 nM to 1.78 nM (3.2-fold).

O=C(CN1CCCCCCC1)Nc1ccc(Cl)cc1Cl and CC(=O)OC[C@@]1(O)C[C@@]23CCC4c5ccoc5CC[C@]4(C)C2CC[C@@H]1C3 (stereo partly drawn) are within 1.5-fold of each other in PGE2 EC50 with compound: 1.11 nM for the first, 0.85 nM for the second.

Cc1ccc(N(C(=O)c2snc(C(N)=O)c2N)C(C(=O)NCCC(C)C)c2ccco2)cc1 (stereo not drawn) and CCCCOc1ccc(-c2c(C(=O)Nc3ccccc3)c(C)[nH]c(=S)c2C#N)cc1 are within 1.5-fold of each other in PGE2 EC50 with compound: 2.61 nM for the first, 2.8 nM for the second.

Going from CC(C)(C)C1CCc2onc(C(=O)Nc3cccnc3)c2C1 (stereo not drawn) to Cc1cccnc1N(C(=O)Nc1ccccc1)C1=NCC(C)(C)S1, the PGE2 EC50 with compound falls from 1.31 nM to 0.57 nM (2.3-fold).

COc1cc(C)c(C(=O)Oc2cc(C)c(C(=O)O)c(O)c2C)c(OC)c1C and COc1ccc(-c2cc(C(F)(F)F)n3nc(C(=O)N(C)Cc4ccccc4)cc3n2)cc1OC are within 1.5-fold of each other in PGE2 EC50 with compound: 0.98 nM for the first, 1.03 nM for the second.

OCCCNc1nc(-c2ccc(Br)cc2)nnc1-c1ccc(Cl)cc1 and O=C(CSc1nc(Cc2ccccc2)nc2ccccc12)c1ccc2c(c1)OCCO2 are within 1.5-fold of each other in PGE2 EC50 with compound: 1.42 nM for the first, 1.23 nM for the second.

First: COc1cc(/C=C/c2ccc3cccc([N+](=O)[O-])c3n2)ccc1OCC(=O)O
Second: C/C(=C\c1ccc(C(=O)O)cc1)c1ccc2c(c1)C(C)(C)CCC2(C)C
The PGE2 EC50 with compound of the first is 2.1-fold higher: 1.64 nM for the first, 0.79 nM for the second.

For Cc1noc(C)c1CSc1nc2sc3c(c2c(=O)n1C)CCCC3, the PGE2 EC50 with compound was 1.46 nM.
